Assay results reported in EP3653215A1, “THERANOSTIC INHIBITORS AND ACTIVITY-BASED PROBES FOR THE KLK7 PROTEASE” (University of Patras, priority 2018, dated 2020).
pIC50: −log10 of the molar value. “Also recorded” adds a separate entry of the source. Where two headings read alike, the source gives them in different places.

What was measured:
trypsin [1] = experiment: Western-like blotting with activity-based probe; format: binding; details: enzyme reacted with probe 2 or 16 hours
Protocol: (§1) For Western-like blotting, the enzymes were reacted with Biotin-FFP for 2 or 16 hours, resolved on SDS-PAGE, then, the proteins were transferred on PVDF membranes. Membranes were blocked with 3% BSA in PBS for 40 min at room temperature, washed twice with PBS and incubated for 1 hour at room temperature with streptavidin-HRP polymer (1:2,000) and subsequently washed four times with PBS containing 0.05% Tween-20. Specific bands were identified with ECL.

KLK6 [2] = target: T1, KLK6 (Homo sapiens, UniProt Q92876); experiment: Western-like blotting with activity-based probe; format: binding; details: enzyme reacted with probe 2 or 16 hours
Protocol: as §1

KLK7 [3] = target: T2, KLK7 (Homo sapiens, UniProt P49862); format: binding
[4] = system: skin of wildtype (wt) or Klk5^-/- mice; experiment: erythema/eschar and oedema scoring after application on the skin; format: in vivo; design: key to Erythema and Eschar Score after (hrs) 4 / Erythema and Eschar Score after (hrs) 24 / Erythema and Eschar Score after (hrs) 48 / Erythema and Eschar Score after (hrs) 72: 0: No erythema; 1: Very slight erythema (barely perceptible); 2: Well defined erythema; 3: Moderate to severe erythema; 4: Severe erythema (beef redness); key to Oedema Score after (hrs) 4 / Oedema Score after (hrs) 24 / Oedema Score after (hrs) 48 / Oedema Score after (hrs) 72: 0: No oedema; 1: Very slight oedema (barely perceptible); 2: Slight oedema (edges of area well defined by definite raising); 3: Moderate oedema (raised approximately 1mm); 4: Severe erythema (raised more than 1mm and extending beyond area of exposure); details: for erythema or oedema in vivo: 1 mM on the skin of wildtype (wt) or Klk5^-/- mice; for erythema or oedema in vivo / toxicity: result in words; for Erythema and Eschar Score after (hrs) 4 / Oedema Score after (hrs) 4 / Erythema and Eschar Score after (hrs) 24 / Oedema Score after (hrs) 24 / Erythema and Eschar Score after (hrs) 48 / Oedema Score after (hrs) 48 / Erythema and Eschar Score after (hrs) 72 / Oedema Score after (hrs) 72: 1 mM on the skin; for Erythema and Eschar Score after (hrs) 4 / Oedema Score after (hrs) 4: 4 hrs; for Erythema and Eschar Score after (hrs) 24 / Oedema Score after (hrs) 24: 24 hrs; for Erythema and Eschar Score after (hrs) 48 / Oedema Score after (hrs) 48: 48 hrs; for Erythema and Eschar Score after (hrs) 72 / Oedema Score after (hrs) 72: 72 hrs; for toxicity: wild type and Klk5^-/- mice
Source text: Scoring was based on the following criteria (Table 2 and 3): Table 2 - Scoring criteria for erythema and eschar formation

trypsin [5] = experiment: enzyme kinetic study, cleavage of fluorescent substrate Z-Phe-Arg-AMC; format: biochemical
Protocol: (§2) The enzyme kinetic study testing the ability of Boc-FFP to inhibit trypsin or KLK6 was performed with cleavage of fluorescent substrate Z-Phe-Arg-AMC. The enzymes were used at 12 nM and the substrate at 50 µM. Boc-FFP was used at 1.2 µM (100:1 molar ration inhibitor: enzyme). Aprotinin was used a positive control at 500 nM final concentration. Fluorescence was measured (λexc=380 nm, λem=440 nm) for 3 min and the results were expressed as ΔF/Δt.

KLK6 [6] = target: T1, KLK6; experiment: as above; format: biochemical
Protocol: as §2

Spink5^-/^-Klk5^-/- mice = experiment: application on the skin of Spink5^-/^-Klk5^-/- mice (desquamation, inflammatory cytokines); format: in vivo
KLK7 [7] = target: T2, KLK7; experiment: gel zymography (casein); format: biochemical
KLK7 [8] = target: T2, KLK7; experiment: KLK7 inhibition study for IC50 determination, BODIPY-FL casein substrate; format: biochemical; details: KLK7 6 nM, inhibitor 50 nM to 10 µM, 16 hours at room temperature, BODIPY-FL casein 30 µg/ml
Protocol: For IC50 determination, KLK7 inhibition study was carried out in assay buffer (100 mM Tris-HCI, pH 7.8, 100 mM NaCl, 10 mM CaCl2, 0.005% Triton X-100). KLK7 (6 nM) was incubated with the inhibitor (50 nM to 10 µM) for 16 hours at room temperature in the assay buffer. Then, the BODIPY-FL casein substrate (Molecular Probes) was added at 30 µg/ml and fluorescence was measured (λexc=485 nm, λem=530 nm). After 3 hours the fluorescence was measured again. Data were inserted into the online available program Very Simple IC50 Tool (http://www.ic50.tk/) for fitting and calculation of the IC50.

trypsin [9] = experiment: gel zymography, specificity; format: biochemical; details: 2 hours at room temperature
Protocol: (§3) For gel zymography, the compounds were reacted with the enzymes at room temperature for 2 hours, then mixed with zymogram loading buffer without mercaptoethanol, incubated at 37°C for 15 min and resolved on 12% SDS-PAGE containing 0.1% casein or gelatin substrates. Gels were washed twice with 50 mM Tris-HCI pH 7.5, 5 mM CaCl2, 2.5% Triton X-100 for 15 min, then 15 min with 50 mM Tris-HCI, pH 7.5, 5 mM CaCl2, 0.1% Triton X-100, and finally incubated in the latter buffer for 24 hours and stained with Coomassie G-250. Proteolytic bands appear white against a blue background.

elastase (ELA) = experiment: gel zymography, specificity; format: biochemical; details: 2 hours at room temperature
Protocol: as §3

KLK13 = target: T3, KLK13 (Homo sapiens, UniProt Q9UKR3); experiment: gel zymography, specificity; format: biochemical; details: 2 hours at room temperature
T3 sequence (Q9UKR3 17-277): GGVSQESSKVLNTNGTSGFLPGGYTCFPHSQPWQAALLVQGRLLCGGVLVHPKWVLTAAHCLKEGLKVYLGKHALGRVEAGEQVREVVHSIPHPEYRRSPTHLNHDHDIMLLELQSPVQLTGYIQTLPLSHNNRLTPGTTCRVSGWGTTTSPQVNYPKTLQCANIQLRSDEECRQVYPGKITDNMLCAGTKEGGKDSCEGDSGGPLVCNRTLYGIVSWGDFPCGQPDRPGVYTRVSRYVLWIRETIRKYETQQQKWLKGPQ
Protocol: as §3

KLK6 [10] = target: T1, KLK6; experiment: gel zymography, specificity; format: biochemical; details: 2 hours at room temperature
Protocol: as §3

[11] = enzyme kinetic study, result in words
[12] = gel zymography, casein, compound reacted with enzyme 2 hours at room temperature

T2 sequence (P49862 30-253): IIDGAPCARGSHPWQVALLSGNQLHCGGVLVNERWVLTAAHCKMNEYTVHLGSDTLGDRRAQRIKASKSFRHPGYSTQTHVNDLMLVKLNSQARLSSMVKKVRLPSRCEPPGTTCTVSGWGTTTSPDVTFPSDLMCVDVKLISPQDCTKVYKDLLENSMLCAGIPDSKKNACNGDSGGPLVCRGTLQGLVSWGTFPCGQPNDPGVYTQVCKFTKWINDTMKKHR

| Compound | erythema or oedema in vivo [4] | Erythema and Eschar Score after (hrs) 4 ([4]; Klk5^-/- mice) | Oedema Score after (hrs) 4 ([4]; Klk5^-/- mice) | Erythema and Eschar Score after (hrs) 24 ([4]; Klk5^-/- mice) | Oedema Score after (hrs) 24 ([4]; Klk5^-/- mice) | Erythema and Eschar Score after (hrs) 48 ([4]; Klk5^-/- mice) | Oedema Score after (hrs) 48 ([4]; Klk5^-/- mice) | Erythema and Eschar Score after (hrs) 72 ([4]; Klk5^-/- mice) | Oedema Score after (hrs) 72 ([4]; Klk5^-/- mice) | toxicity [4] | Erythema and Eschar Score after (hrs) 4 ([4]; wt mice) | Oedema Score after (hrs) 4 ([4]; wt mice) | Erythema and Eschar Score after (hrs) 24 ([4]; wt mice) | Oedema Score after (hrs) 24 ([4]; wt mice) | Erythema and Eschar Score after (hrs) 48 ([4]; wt mice) | Oedema Score after (hrs) 48 ([4]; wt mice) | Erythema and Eschar Score after (hrs) 72 ([4]; wt mice) | Oedema Score after (hrs) 72 ([4]; wt mice) | inhibition of KLK7 activity (KLK7 [7]; [12]) | further results |
| --- | --- | --- | --- | --- | --- | --- | --- | --- | --- | --- | --- | --- | --- | --- | --- | --- | --- | --- | --- | --- |
| O=C(CCCCCNC(=O)CCCC[C@H]1SCC2NC(=O)NC21)NCCCCCC(=O)NC(Cc1ccccc1)C(=O)NC(Cc1ccccc1)P(=O)(Oc1ccccc1)Oc1ccccc1 (stereo partly drawn) [Biotin-FFP, diphenyl 1-(2-(6-(6-(5-((4R)-2-oxo-hexahydro-1H-thieno[3,4-d]imidazole-4-yl)pentanamido)hexanamido)hexanamido)-3-phenylpropanamido)-2-phenylethylphosphonate] | did not exhibit either erythema or oedema | 0 | 0 | 0 | 0 | 0 | 0 | 0 | 0 | lack toxicity | 0 | 0 | 0 | 0 | 0 | 0 | 0 | 0 |  | detection of trypsin (trypsin [1]): not the trypsin or the KLK6; also recorded: does not react with KLK6 and trypsin; detection of KLK6 (KLK6 [2]): does not react with KLK6 and trypsin; detection of active KLK7 (KLK7 [3]): only detected the active KLK7; labeling of KLK7, signal (KLK7 [3]): higher signal compared to Biotin-FbFP; also recorded: significant signal enhancement |
| CC(C)(C)OC(=O)NC(Cc1ccccc1)C(=O)NC(Cc1ccccc1)P(=O)(Oc1ccccc1)Oc1ccccc1 (stereo not drawn) [Boc-FFP, tert-butvl 1-(1-(diphenoxvphosphorvl)-2-phenylethylamino)-1-oxo-3-phenylpropan-2-ylcarbamate] | did not exhibit either erythema or oedema | 0 | 0 | 0 | 0 | 0 | 0 | 0 | 0 | lack toxicity | 0 | 0 | 0 | 0 | 0 | 0 | 0 | 0 |  | inhibition of the activity of trypsin (trypsin [5]; [11]): did not inhibit; ΔF/Δt (trypsin [5]; trypsin 12 nM, Z-Phe-Arg-AMC 50 µM, change in fluorescence over 3 min, Boc-FFP 1.2 µM pre-incubated 2 hours, Aprotinin 500 nM, trypsin alone 33.49): 33.26; ΔF/Δt (KLK6 [6]; KLK6 12 nM, Z-Phe-Arg-AMC 50 µM, change in fluorescence over 3 min, Boc-FFP 1.2 µM pre-incubated 2 hours, Aprotinin 500 nM, KLK6 alone 35.54): 37.96; inhibition of the activity of KLK6 (KLK6 [6]; [11]): did not inhibit; reduction of macroscopic desquamation (Spink5^-/^-Klk5^-/- mice; application on the skin of Spink5^-/^-Klk5^-/- mice, versus solvent control side): approximately 50%; expression of inflammatory cytokines (Spink5^-/^-Klk5^-/- mice; skin of Spink5^-/^-Klk5^-/- mice, RT-qPCR, versus solvent treatment): suppressed the expression of inflammatory cytokines; inhibition of KLK7 activity (KLK7 [7]): only Boc-FFP could effectively inhibit KLK7 activity; also recorded: can also inhibit the KLK7 activity; also recorded: can only inhibit the activity of KLK7; also recorded: Only KLK7 was inhibited; pIC50 (KLK7 [8]): 5.72; inhibition of trypsin (trypsin [9]): Only KLK7 was inhibited; inhibition of elastase (ELA) (elastase (ELA)): Only KLK7 was inhibited; inhibition of KLK13 (KLK13): Only KLK7 was inhibited; inhibition of KLK6 (KLK6 [10]): Only KLK7 was inhibited |
| CC(C)(C)OC(=O)NC(Cc1ccccc1)C(=O)NC(c1ccccc1)P(=O)(Oc1ccccc1)Oc1ccccc1 (stereo not drawn) [Boc-FbFP] |  |  |  |  |  |  |  |  |  |  |  |  |  |  |  |  |  |  | only Boc-FFP can inhibit the activity of KLK7 |  |
| CC(C)(C)OC(=O)NC(Cc1ccccc1)C(=O)NC(CCc1ccccc1)P(=O)(Oc1ccccc1)Oc1ccccc1 (stereo not drawn) [Boc-FcFP] |  |  |  |  |  |  |  |  |  |  |  |  |  |  |  |  |  |  | only Boc-FFP can inhibit the activity of KLK7 |  |
